Here are results for ten molecules from patent publication US12403137B2, “Compounds and methods of use” (Tango Therapeutics, Inc., priority 2019, dated 2025).

The target in assay [1] is T1, PRMT5 (Homo sapiens, UniProt O14744).
T1 construct: purchased Viva (custom protein)
Nature of the assay: PRMT5 inhibition assay with SAM as cofactor. The assay is classed as biochemical. The note with it: against PRMT5 in the presence of SAM as cofactor. From the text: (§1) The Ki values can be calculated from the IC50 values as described in the Examples section. As detailed in the Examples section, for the assay performed in the presence of SAM, IC50=Ki×1.5 (Ki=IC50/1.5). For the assay performed in the presence of MTA, IC50=Ki×13.5 (Ki=IC50/13.5). Column 6 indicates the ratio between the Ki of compounds in the presence of SAM and the Ki of compounds in the presence of MTA

Assay [2] concerns the target T1, PRMT5. Nature of the assay: PRMT5 inhibition assay with no cofactor. It counts as biochemical. The following applies: against PRMT5 with no cofactor; read-out: No Co-factor IC50.
Assay [3] addresses T1, PRMT5. Nature of the assay: PRMT5 inhibition assay with MTA as cofactor. The assay is classed as biochemical. The note with it: for IC50: against PRMT5 with MTA as cofactor; for SAM/MTA Ratio: ratio of Ki in the presence of SAM to Ki in the presence of MTA, Ki=IC50/1.5 (SAM), Ki=IC50/13.5 (MTA).
Description: as §1

In assay [4] the test system is HAP1 MTAP-intact cell line. Nature of the assay: SDMA in-cell western assay, HAP1 MTAP-intact. The following applies: Homo sapiens. The assay is classed as cell-based. In a few lines:
(§2)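 IC50 values come from an SDMA in-cell western run in isogenic HAP1 cells, either MTAP-null or expressing endogenous MTAP. The intact-to-deleted IC50 ratio is used to score MTAP selectivity.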

For assay [5], the system named is HAP1 MTAP-deleted cell line. Nature of the assay: SDMA in-cell western assay, HAP1 MTAP-deleted. It counts as cell-based. The following applies: for IC50: Homo sapiens, HAP1 MTAP-deleted (MTAP-null) cell line; for MTAP Intact/Deleted Ratio: IC50 ratio HAP1 MTAP-intact / HAP1 MTAP-deleted, >=3 fold considered MTAP-selective. In outline:
as §2

Some results are limits rather than exact numbers.

T1 sequence (O14744 whole entry): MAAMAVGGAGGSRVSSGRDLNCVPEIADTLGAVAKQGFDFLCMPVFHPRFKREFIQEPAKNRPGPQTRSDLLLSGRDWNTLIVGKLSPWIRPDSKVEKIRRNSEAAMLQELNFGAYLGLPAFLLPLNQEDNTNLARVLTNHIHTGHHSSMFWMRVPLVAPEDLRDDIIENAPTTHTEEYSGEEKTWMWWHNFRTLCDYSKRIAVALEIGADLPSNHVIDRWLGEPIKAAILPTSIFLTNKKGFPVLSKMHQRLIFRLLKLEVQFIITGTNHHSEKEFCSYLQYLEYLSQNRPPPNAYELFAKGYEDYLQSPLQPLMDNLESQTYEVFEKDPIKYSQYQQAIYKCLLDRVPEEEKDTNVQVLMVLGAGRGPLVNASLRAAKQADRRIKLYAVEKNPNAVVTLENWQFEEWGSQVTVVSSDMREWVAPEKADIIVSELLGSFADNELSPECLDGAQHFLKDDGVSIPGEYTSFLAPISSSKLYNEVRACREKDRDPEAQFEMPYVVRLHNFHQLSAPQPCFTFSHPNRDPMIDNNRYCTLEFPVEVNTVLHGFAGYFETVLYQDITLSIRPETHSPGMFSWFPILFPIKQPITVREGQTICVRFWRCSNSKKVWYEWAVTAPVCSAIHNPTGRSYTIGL
T1 sequence (Q9BQA1 whole entry partner): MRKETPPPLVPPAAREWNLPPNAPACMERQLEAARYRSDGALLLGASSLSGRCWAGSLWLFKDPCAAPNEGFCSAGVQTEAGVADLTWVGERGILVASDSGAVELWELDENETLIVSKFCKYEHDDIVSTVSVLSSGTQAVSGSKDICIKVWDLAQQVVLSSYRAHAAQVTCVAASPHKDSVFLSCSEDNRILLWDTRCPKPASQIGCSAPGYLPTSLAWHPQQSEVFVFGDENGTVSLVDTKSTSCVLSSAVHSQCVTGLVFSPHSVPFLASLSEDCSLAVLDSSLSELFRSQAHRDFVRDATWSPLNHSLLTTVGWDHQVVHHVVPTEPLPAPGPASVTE

Regarding `COc1cnc(NC2CCC2)cc1C(=O)NC[C@@H](O)[C@@H]1Cc2ccc(OCc3ocnc3C)cc2CN1` [Compound 36, 2-(cyclobutylamino)-N—((R)-2-hydroxy-2-((S)-7-((4-methyloxazol-5-yl)methoxy)-1,2,3,4-tetrahydroisoquinolin-3-yl)ethyl)-5-methoxyisonicotinamide], the half-inhibitory concentration (IC50) in assay [1] was 50 to 500 nM; in assay [2] it was 500 to 5000 nM; in assay [3] it was less than 50 nM; in assay [4], 1000 to 10000 nM; in assay [5], less than 1000 nM. In addition, in assay [3], the “SAM/MTA Ratio” value was “A (a Ki ratio greater than or equal to 10 fold between the Ki in the presence of SAM and the Ki in the presence of MTA)”. In addition, the “MTAP Intact/Deleted Ratio” value in assay [5] is “B* (an IC50 ratio greater than or equal to 3 fold but lower than 10 fold between the IC50 in the HAP1 MTAP-intact cell line and the HAP1 MTAP-deleted cell line)”.

Turning to `CC(=O)N1CCC(Nc2cc(C(=O)NC[C@@H](O)[C@@H]3Cc4ccc(OCc5ocnc5C)cc4CN3)cc(N3CCN(C)CC3)n2)CC1` [Compound 54, 2-[(1-acetyl-4-piperidyl)amino]-N-[(2R)-2-hydroxy-2-[(3S)-7-[(4-methyloxazol-5-yl)methoxy]-1,2,3,4-tetrahydroisoquinolin-3-yl]ethyl]-6-(4-methylpiperazin-1-yl)pyridine-4-carboxamide], the IC50 in assay [1] is 50 to 500 nM; in assay [2], 50 to 500 nM; in assay [3] it was less than 50 nM; in assay [4], no less than 10000 nM; in assay [5], 1000 to 10000 nM. In addition, the “SAM/MTA Ratio” value in assay [3] was “A (a Ki ratio greater than or equal to 10 fold between the Ki in the presence of SAM and the Ki in the presence of MTA)”. Besides, in assay [5], the “MTAP Intact/Deleted Ratio” value is “C* (an IC50 ratio of less than 3 fold between the IC50 in the HAP1 MTAP-intact cell line and the HAP1 MTAP-deleted cell line)”.

For `CC(=O)N1CC(Nc2cc(C(=O)NC[C@@H](O)[C@@H]3Cc4ccc(OCc5ocnc5C)cc4CN3)nc(N3CCN(C(C)C)CC3)n2)C1` [Compound 47, 6-[(1-acetylazetidin-3-yl)amino]-N-[(2R)-2-hydroxy-2-[(3S)-7-[(4-methyloxazol-5-yl)methoxy]-1,2,3,4-tetrahydroisoquinolin-3-yl]ethyl]-2-(4-isopropylpiperazin-1-yl)pyrimidine-4-carboxamide], the IC50 is 50 to 500 nM in assay [1]; 50 to 500 nM in assay [2]; less than 50 nM in assay [3]; no less than 10000 nM in assay [4]; 1000 to 10000 nM in assay [5]. In addition, the “SAM/MTA Ratio” value in assay [3] was “A (a Ki ratio greater than or equal to 10 fold between the Ki in the presence of SAM and the Ki in the presence of MTA)”. Besides, in assay [5], the “MTAP Intact/Deleted Ratio” value is “C* (an IC50 ratio of less than 3 fold between the IC50 in the HAP1 MTAP-intact cell line and the HAP1 MTAP-deleted cell line)”.

Turning to `CCN1CCN(c2cc(C(=O)NC[C@@H](O)[C@@H]3Cc4ccc(OCc5ocnc5C)cc4CN3)cc(NC3CCC3)n2)CC1` [Compound 55, 2-(cyclobutylamino)-6-(4-ethylpiperazin-1-yl)-N-[(2R)-2-hydroxy-2-[(3S)-7-[(4-methyloxazol-5-yl)methoxy]-1,2,3,4-tetrahydroisoquinolin-3-yl]ethyl]pyridine-4-carboxamide], the IC50 in assay [1] is 50 to 500 nM; in assay [2], 50 to 500 nM; in assay [3], less than 50 nM; in assay [4], less than 1000 nM; in assay [5], less than 1000 nM. The “SAM/MTA Ratio” value in assay [3] was “A (a Ki ratio greater than or equal to 10 fold between the Ki in the presence of SAM and the Ki in the presence of MTA)”. The “MTAP Intact/Deleted Ratio” value in assay [5] was “B* (an IC50 ratio greater than or equal to 3 fold but lower than 10 fold between the IC50 in the HAP1 MTAP-intact cell line and the HAP1 MTAP-deleted cell line)”.

With `Cn1nccc1COc1ccc2c(c1)CN[C@H]([C@H](O)CNC(=O)c1ccc(C(=O)N3[C@@H]4CCC[C@H]3COC4)cc1)C2` [Compound 9, 4-((1R,5S)-3-oxa-9-azabicyclo[3.3.1]nonane-9-carbonyl)-N—((R)-2-hydroxy-2-((S)-7-((1-methyl-1H-pyrazol-5-yl)methoxy)-1,2,3,4-tetrahydroisoquinolin-3-yl)ethyl)benzamide], the concentration for half-maximal inhibition (IC50) in assay [1] is 50 to 500 nM; in assay [2], 500 to 5000 nM; in assay [3] it was 50 to 500 nM; in assay [4] it was no less than 10000 nM; in assay [5], 1000 to 10000 nM. For the same molecule, the “SAM/MTA Ratio” value in assay [3] was “A (a Ki ratio greater than or equal to 10 fold between the Ki in the presence of SAM and the Ki in the presence of MTA)”. In addition, the “MTAP Intact/Deleted Ratio” value in assay [5] is “B* (an IC50 ratio greater than or equal to 3 fold but lower than 10 fold between the IC50 in the HAP1 MTAP-intact cell line and the HAP1 MTAP-deleted cell line)”.

With `Cc1ncoc1COc1ccc2c(c1)CN[C@H]([C@H](O)CNC(=O)c1cc(NC3CCC3)ncc1F)C2` [Compound 27, 2-(cyclobutylamino)-5-fluoro-N—((R)-2-hydroxy-2-((S)-7-((4-methyloxazol-5-yl)methoxy)-1,2,3,4-tetrahydroisoquinolin-3-yl)ethyl)isonicotinamide], the IC50 was 50 to 500 nM in assay [1]; 500 to 5000 nM in assay [2]; 50 to 500 nM in assay [3]; 1000 to 10000 nM in assay [4]; less than 1000 nM in assay [5]. In addition, the “SAM/MTA Ratio” value in assay [3] was “A (a Ki ratio greater than or equal to 10 fold between the Ki in the presence of SAM and the Ki in the presence of MTA)”. In addition, the “MTAP Intact/Deleted Ratio” value in assay [5] is “A* (an IC50 ratio greater than or equal to 10 fold between the IC50 in the HAP1 MTAP-intact cell line and the HAP1 MTAP-deleted cell line)”.

Consider `CCC(=O)N1CCN(c2cc(C(=O)NC[C@@H](O)[C@@H]3Cc4ccc(OCc5ocnc5C)cc4CN3)cc(NC3CCC3)n2)CC1` [Compound 39, 2-(cyclobutylamino)-N—((R)-2-hydroxy-2-((S)-7-((4-methyloxazol-5-yl)methoxy)-1,2,3,4-tetrahydroisoquinolin-3-yl)ethyl)-6-(4-propionylpiperazin-1-yl)isonicotinamide], for which the IC50 in assay [1] was 50 to 500 nM; in assay [2] it was 50 to 500 nM; in assay [3] it was less than 50 nM; in assay [4] it was 1000 to 10000 nM; in assay [5], less than 1000 nM. For the same molecule, in assay [3], the “SAM/MTA Ratio” value was “A (a Ki ratio greater than or equal to 10 fold between the Ki in the presence of SAM and the Ki in the presence of MTA)”. Also, in assay [5], the “MTAP Intact/Deleted Ratio” value was “A* (an IC50 ratio greater than or equal to 10 fold between the IC50 in the HAP1 MTAP-intact cell line and the HAP1 MTAP-deleted cell line)”.

For the molecule `CC(=O)N1CC(Nc2cc(C(=O)NC[C@@H](O)[C@@H]3Cc4ccc(OCc5ocnc5C)cc4CN3)cc(N3CCCCC3)c2)C1` [Compound 59, 3-[(1-acetylazetidin-3-yl)amino]-N-[(2R)-2-hydroxy-2-[(3S)-7-[(4-methyloxazol-5-yl)methoxy]-1,2,3,4-tetrahydroisoquinolin-3-yl]ethyl]-5-(1-piperidyl)benzamide], the IC50 in assay [1] was 50 to 500 nM; in assay [2] it was 50 to 500 nM; in assay [3], 50 to 500 nM; in assay [4] it was no less than 10000 nM; in assay [5], no less than 10000 nM. The “SAM/MTA Ratio” value in assay [3] is “A (a Ki ratio greater than or equal to 10 fold between the Ki in the presence of SAM and the Ki in the presence of MTA)”. In assay [5], the “MTAP Intact/Deleted Ratio” value was “C* (an IC50 ratio of less than 3 fold between the IC50 in the HAP1 MTAP-intact cell line and the HAP1 MTAP-deleted cell line)”.

For the molecule `CC(=O)N1CC(Nc2cc(C(=O)NC[C@@H](O)[C@@H]3Cc4ccc(OCc5ocnc5C)cc4CN3)nc(N3CC4CCC(C4)C3)n2)C1` [Compound 56, 6-[(1-acetylazetidin-3-yl)amino]-2-(3-azabicyclo[3.2.1]octan-3-yl)-N-[(2R)-2-hydroxy-2-[(3S)-7-[(4-methyloxazol-5-yl)methoxy]-1,2,3,4-tetrahydroisoquinolin-3-yl]ethyl]pyrimidine-4-carboxamide], the IC50 was 50 to 500 nM in assay [1]; 50 to 500 nM in assay [2]; less than 50 nM in assay [3]; 1000 to 10000 nM in assay [4]; less than 1000 nM in assay [5]. The “SAM/MTA Ratio” value in assay [3] is “A (a Ki ratio greater than or equal to 10 fold between the Ki in the presence of SAM and the Ki in the presence of MTA)”. In assay [5], the “MTAP Intact/Deleted Ratio” value was “A* (an IC50 ratio greater than or equal to 10 fold between the IC50 in the HAP1 MTAP-intact cell line and the HAP1 MTAP-deleted cell line)”.

Regarding `CCOc1nc(N2CCN(C(=O)OC)CC2)ccc1C(=O)NC[C@@H](O)[C@@H]1Cc2ccc(OCc3ccnn3C)cc2CN1` [Compound 18, methyl 4-(6-ethoxy-5-(((R)-2-hydroxy-2-((S)-7-((1-methyl-1H-pyrazol-5-yl)methoxy)-1,2,3,4-tetrahydroisoquinolin-3-yl)ethyl)carbamoyl)pyridin-2-yl)piperazine-1-carboxylate], the IC50 in assay [1] is 50 to 500 nM; in assay [2] it was 500 to 5000 nM; in assay [3], less than 50 nM; in assay [4], no less than 10000 nM; in assay [5], less than 1000 nM. For the same molecule, the “SAM/MTA Ratio” value in assay [3] is “A (a Ki ratio greater than or equal to 10 fold between the Ki in the presence of SAM and the Ki in the presence of MTA)”. The “MTAP Intact/Deleted Ratio” value in assay [5] is “A* (an IC50 ratio greater than or equal to 10 fold between the IC50 in the HAP1 MTAP-intact cell line and the HAP1 MTAP-deleted cell line)”.

Usually IC50 stands for the concentration that inhibits the measured activity by half.
